From ChEMBL document CHEMBL1148587, “Imidazo[1,2-a]pyrimidines as functionally selective and orally bioavailable GABA(A)alpha2/alpha3 binding site agonists for the treatment of anxiety disorders” (J Med Chem, 2006)
Calls of active or inactive are those of the source. No cut-off for these calls is given here.

Columns and labels:
[1] = Oral bioavailability in dog; format: ADME, organism-based, Canis lupus familiaris; settings: in vivo
[2] = target: T1, GABA-A receptor; alpha-3/beta-3/gamma-2 (Homo sapiens, UniProt P18507+P28472+P34903); assay: Displacement of [3H]Ro-151788 from human recombinant GABAA alpha3 in combination with beta3gamma2 expressed in L(tk-) cells; format: cell-based
T1 sequence (P18507 whole entry): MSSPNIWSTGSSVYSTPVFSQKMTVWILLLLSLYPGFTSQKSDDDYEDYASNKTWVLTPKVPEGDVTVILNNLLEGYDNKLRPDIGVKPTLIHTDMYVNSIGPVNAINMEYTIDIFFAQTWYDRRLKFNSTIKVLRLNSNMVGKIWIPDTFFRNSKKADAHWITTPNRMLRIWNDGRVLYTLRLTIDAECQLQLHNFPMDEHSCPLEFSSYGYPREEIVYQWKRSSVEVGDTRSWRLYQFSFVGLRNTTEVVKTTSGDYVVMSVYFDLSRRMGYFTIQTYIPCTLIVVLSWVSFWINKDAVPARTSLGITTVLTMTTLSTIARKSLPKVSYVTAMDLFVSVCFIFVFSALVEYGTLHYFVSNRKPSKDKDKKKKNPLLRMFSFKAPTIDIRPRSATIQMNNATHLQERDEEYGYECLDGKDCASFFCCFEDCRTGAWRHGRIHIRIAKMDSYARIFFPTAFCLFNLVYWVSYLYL
T1 sequence (P28472 whole entry): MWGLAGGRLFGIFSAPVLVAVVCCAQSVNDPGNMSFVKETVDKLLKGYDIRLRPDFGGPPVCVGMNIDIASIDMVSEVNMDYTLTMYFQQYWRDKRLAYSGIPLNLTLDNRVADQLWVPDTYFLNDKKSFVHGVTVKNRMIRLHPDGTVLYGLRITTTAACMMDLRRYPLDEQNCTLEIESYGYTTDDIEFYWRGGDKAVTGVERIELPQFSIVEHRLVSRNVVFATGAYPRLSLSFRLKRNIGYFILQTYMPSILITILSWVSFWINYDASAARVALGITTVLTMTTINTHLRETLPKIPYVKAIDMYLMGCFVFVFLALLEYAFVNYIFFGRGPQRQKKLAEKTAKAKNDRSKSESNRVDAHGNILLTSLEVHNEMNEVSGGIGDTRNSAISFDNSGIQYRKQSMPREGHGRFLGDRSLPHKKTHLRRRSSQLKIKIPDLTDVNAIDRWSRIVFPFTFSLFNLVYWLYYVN
T1 sequence (P34903 whole entry): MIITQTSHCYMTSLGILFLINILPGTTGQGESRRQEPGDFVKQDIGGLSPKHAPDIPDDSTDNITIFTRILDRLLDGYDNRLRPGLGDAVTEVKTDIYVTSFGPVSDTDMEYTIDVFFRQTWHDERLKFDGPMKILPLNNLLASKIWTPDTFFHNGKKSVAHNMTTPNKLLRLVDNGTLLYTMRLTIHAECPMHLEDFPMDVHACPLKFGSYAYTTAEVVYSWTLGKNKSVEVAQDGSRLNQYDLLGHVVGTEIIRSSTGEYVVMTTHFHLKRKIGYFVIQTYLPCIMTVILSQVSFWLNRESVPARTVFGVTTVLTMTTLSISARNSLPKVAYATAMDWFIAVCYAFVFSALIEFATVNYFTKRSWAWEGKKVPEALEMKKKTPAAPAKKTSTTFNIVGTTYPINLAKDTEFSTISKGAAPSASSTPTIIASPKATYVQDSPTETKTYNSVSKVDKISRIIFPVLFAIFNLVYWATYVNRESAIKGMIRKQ

Rattus norvegicus = assay: Effect on activity impairment in rat chain pulling assay at 30 mg/kg, po; format: functional, organism-based; set-up: dose 30 mg/kg
Squirrel monkey [3] = assay: Anxiolytic activity in squirrel monkey conditioned emotional response test at 3 mg/kg, po; format: functional, organism-based; set-up: dose 3 mg/kg; settings: Saimiri sciureus
[4] = Oral bioavailability in rat; format: ADME, organism-based; settings: in vivo
[5] = Half life in rat; format: ADME, organism-based; settings: in vivo
Squirrel monkey [6] = assay: Anxiolytic activity in squirrel monkey conditioned emotional response test at 0.3 mg/kg, po; format: functional, organism-based; set-up: dose 0.3 mg/kg; settings: Saimiri sciureus
[7] = Half life in dog; format: ADME, organism-based, Canis lupus familiaris; settings: in vivo
[8] = target: GABA-A receptor; alpha-1/beta-3/gamma-2 (Homo sapiens) (UniProt P14867+P18507+P28472); assay: Efficacy against human recombinant GABAA alpha-1 in combination with beta3gamma2 expressed in L(tk-) cells by whole cell patch clamp method; format: functional, cell-based
[9] = Plasma clearance in rat; format: ADME, organism-based
[10] = target: T2, GABA-A receptor; alpha-5/beta-3/gamma-2 (Homo sapiens, UniProt P18507+P28472+P31644); assay: Displacement of [3H]Ro-151788 from human recombinant GABAA alpha5 in combination with beta3gamma2 expressed in L(tk-) cells; format: cell-based
T2 sequence (P18507 whole entry): T1 sequence (P18507 whole entry)
T2 sequence (P28472 whole entry): T1 sequence (P28472 whole entry)
T2 sequence (P31644 whole entry): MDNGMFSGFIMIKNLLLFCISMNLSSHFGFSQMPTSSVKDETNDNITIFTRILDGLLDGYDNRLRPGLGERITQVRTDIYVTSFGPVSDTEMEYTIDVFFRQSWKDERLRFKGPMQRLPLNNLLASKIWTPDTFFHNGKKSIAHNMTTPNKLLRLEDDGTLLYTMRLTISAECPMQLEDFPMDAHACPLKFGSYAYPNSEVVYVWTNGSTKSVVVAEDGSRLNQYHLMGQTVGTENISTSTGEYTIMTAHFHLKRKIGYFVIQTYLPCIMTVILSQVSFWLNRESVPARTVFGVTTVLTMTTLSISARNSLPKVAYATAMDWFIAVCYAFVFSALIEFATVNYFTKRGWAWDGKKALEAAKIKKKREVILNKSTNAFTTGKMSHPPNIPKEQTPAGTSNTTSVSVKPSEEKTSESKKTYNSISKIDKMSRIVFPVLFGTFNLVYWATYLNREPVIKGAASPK

[11] = target: T3, GABA-A receptor; alpha-2/beta-3/gamma-2 (Homo sapiens, UniProt P18507+P28472+P47869); assay: Displacement of [3H]-Ro15-1788 from human recombinant GABAA alpha2 in combination with beta3gamma2 expressed in L(tk-) cells; format: cell-based
T3 sequence (P18507 whole entry): T1 sequence (P18507 whole entry)
T3 sequence (P28472 whole entry): T1 sequence (P28472 whole entry)
T3 sequence (P47869 whole entry): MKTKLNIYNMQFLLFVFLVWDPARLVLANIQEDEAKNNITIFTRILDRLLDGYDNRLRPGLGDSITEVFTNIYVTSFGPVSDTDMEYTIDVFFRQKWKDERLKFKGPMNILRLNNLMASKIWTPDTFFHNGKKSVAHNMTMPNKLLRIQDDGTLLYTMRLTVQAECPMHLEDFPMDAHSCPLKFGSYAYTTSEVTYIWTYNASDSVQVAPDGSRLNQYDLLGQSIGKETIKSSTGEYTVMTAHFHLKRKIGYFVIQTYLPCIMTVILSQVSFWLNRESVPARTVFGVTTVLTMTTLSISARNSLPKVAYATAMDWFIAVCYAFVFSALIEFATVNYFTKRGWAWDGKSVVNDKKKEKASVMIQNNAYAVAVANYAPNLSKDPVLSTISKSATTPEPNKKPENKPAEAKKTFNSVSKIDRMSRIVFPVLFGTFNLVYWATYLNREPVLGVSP

With `CC(C)(O)c1ccn2c(-c3ccc(F)c(-c4cccnc4)c3)cnc2n1` the bioavailability [1] was 48%, the Ki [2] was 4 nM and the Activity (Rattus norvegicus) was “inactive”. The Activity (Squirrel monkey [3]) was “Active”, the bioavailability [4] was 77% and the half-life [5] was 1.7 h. The Activity (Squirrel monkey [6]) was “Active”, the half-life [7] was 0.7 h and the Efficacy [8] was 6.2%. The clearance [9] was 9.1 mL/min/kg, the Ki [10] was 0.53 nM and the Ki [11] was 3.7 nM.

In the case of `N#Cc1cc(F)ccc1-c1cc(-c2cnc3nc(C(F)(F)F)ccn23)ccc1F`, the bioavailability [1] is reported as 29%, the Ki [2] is reported as 0.73 nM and the Activity (Rattus norvegicus) is reported as “inactive”. The Activity (Squirrel monkey [3]) was “Active”, the bioavailability [4] was 53% and the half-life [5] was 7.3 h. The Activity (Squirrel monkey [6]) was “Active”, the half-life [7] was 32 h and the Efficacy [8] was -2%. It also gave a clearance [9] of 10.3 mL/min/kg, a Ki [10] of 0.5 nM and a Ki [11] of 1 nM.
